Measurements reported in patent US9609868B2, “Alkoximino-substituted anthranilic acid diamides as pesticides” (BAYER CROPSCIENCE AKTIENGESELLSCHAFT, priority 2013, dated 2017).

Columns and labels:
Boophilus microplus = Boophilus microplus - injection test (BOOPMI Inj); type: in vivo; conditions: application rate 20 μg/animal, injection into engorged adult female cattle ticks
Method: Boophilus microplus—Injection Test (BOOPMI Inj)
(§1) Solvent: dimethyl sulfoxide
To produce a suitable preparation of active compound, 10 mg of active compound are mixed with 0.5 ml of solvent and the concentrate is diluted with solvent to the desired concentration.
1 μl of the active compound solution is injected into the abdomen of 5 engorged adult female cattle ticks (Boophilus microplus). The animals are transferred into dishes and kept in a climate-controlled room.
The activity is assessed after the desired time by laying of fertile eggs. Eggs which are not visibly fertile are stored in a climate-controlled cabinet until the larvae hatch after about 42 days. An efficacy of 100% means that none of the ticks has laid any fertile eggs; 0% means that all the eggs are fertile.

Myzus persicae = Myzus persicae - spray test (MYZUPE); type: in vivo; conditions: application rate 100 g/ha, Chinese cabbage leaf disks
Outline: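 Chinese cabbage leaf disks carrying all stages of green peach aphid were sprayed with compound in acetone/DMF with emulsifier, diluted in water. After the chosen period, efficacy was scored as % aphids killed.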

Lucilia cuprina = Lucilia cuprina test (LUCICU); type: in vivo; conditions: application rate 100 ppm
Method: Lucilia cuprina-Test (LUCICU)
as §1
To produce a suitable preparation of active compound, 10 mg of active compound are mixed with 0.5 ml of dimethyl sulfoxide, and the concentrate is diluted with water to the desired concentration.
About 20 L1 larvae of the Australian sheep blowfly (Lucilia cuprina) are transferred into a test vessel containing minced horsemeat and the active compound preparation of the desired concentration.
After the desired time, the kill in % is determined. 100% means that all the larvae have been killed; 0% means that no larvae have been killed.

Phaedon cochleariae = Phaedon cochleariae - spray test (PHAECO); type: in vivo; conditions: application rate 100 g/ha, Chinese cabbage leaf disks
Method: Phaedon cochleariae—Spray Test (PHAECO)
(§2) Solvent: 78.0 parts by weight of acetone • • 1.5 parts by weight of dimethylformamide
(§3) Emulsifier: 0.5 parts by weight of alkylaryl polyglycol ether
(§4) To produce a suitable active compound preparation, 1 part by weight of active compound is mixed with the stated amounts of solvent and emulsifier, and the concentrate is diluted with emulsifier-containing water to the desired concentration.
After the desired period of time, the efficacy in % is determined. 100% means that all the beetle larvae have been killed; 0% means that no beetle larvae have been killed.

Spodoptera frugiperda = Spodoptera frugiperda - spray test (SPODFR); type: in vivo; conditions: application rate 100 g/ha, maize leaf disks
Outline: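 Maize leaf disks sprayed with compound in acetone/DMF with alkylaryl polyglycol ether emulsifier, diluted in water to test concentration, then infested with armyworm caterpillars once dry. Efficacy given as % caterpillars killed (100% all, 0% none) after the chosen period.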

[1] = log P by HPLC on reversed-phase column (C18), EEC directive 79/831 Annex V.A8; type: physicochemical; conditions: for log p: HPLC reversed-phase C18, 43° C., data refer to the E isomer
Method: The log P values reported in the tables and Preparation Examples above were determined in accordance with EEC directive 79/831 Annex V.A8 by HPLC (High Performance Liquid Chromatography) using a reversed-phase column (C18). Temperature 43° C. The calibration is effected with unbranched alkan-2-ones (having 3 to 16 carbon atoms), for which the log P values are known.

Tetranychus urticae = Tetranychus urticae - spray test, OP-resistant (TETRUR); type: in vivo; conditions: application rate 100 g/ha, bean leaf disks
Method: Tetranychus urticae—Spray Test, OP-Resistant (TETRUR)
as §2, §3, §4
Disks of bean leaves (Phaseolus vulgaris) infested with all stages of the greenhouse red spider mite (Tetranychus urticae) are sprayed with an active compound preparation of the desired concentration.
After the desired period of time, the efficacy in % is determined. 100% means that all the spider mites have been killed; 0% means that none of the spider mites have been killed.

Structure (SMILES) | efficacy (no fertile eggs laid) (Boophilus microplus) [%] | efficacy (aphids killed) (Myzus persicae) [%] | efficacy (kill of L1 larvae) (Lucilia cuprina) [%] | efficacy (beetle larvae killed) (Phaedon cochleariae) [%] | efficacy (caterpillars killed) (Spodoptera frugiperda) [%] | log p ([1]; Table A) | efficacy (spider mites killed) (Tetranychus urticae) [%] | chromatographic logP ([1]; log P) | chromatographic logP ([1]; log p) | log p ([1]; Table C) | log p ([1]; Table B)
CON=Cc1cc(C)c(NC(=O)c2cc(C(F)(F)F)nn2-c2ncccc2Cl)c(C(=O)NNC(=O)OC)c1 [A-04] | 100 | 100 | 100 | 100 | 100 | 2.65 | – | – | – | – | –
CO/N=C/c1cc(C)c(NC(=O)c2cc(OC(F)F)nn2-c2ncccc2Cl)c(C(=O)NNC(=O)OC)c1 [A-02, Methyl 2-{2-({[1-(3-chloropyridin-2-yl)-3-(difluoromethoxy)-1H-pyrazol-5-yl]carbonyl}amino)-5-[(E)-(methoxyimino)methyl]-3-methylbenzoyl}hydrazinecarboxylate] | – | 90 | – | 100 | 100 | – | 90 | 2.28 | 2.38 | – | –
CON=Cc1cc(C)c(NC(=O)c2cc(OC)nn2-c2ncccc2Cl)c(C(=O)NN(C)C(=O)OC)c1 (mixture of isomers) [A-43] | – | 100 | – | 100 | 100 | 2.19 | 100 | – | – | – | –
CCNC(=O)c1cc(C=NOC)cc(C)c1NC(=O)c1cc(OCC(F)F)nn1-c1ncccc1Cl [C-46] | 100 | 100 | 100 | – | 100 | – | – | – | – | 2.81 | –
CON=Cc1cc(C)c(NC(=O)c2cc(CF)nn2-c2ncccc2Cl)c(C(=O)NC(C)(C)C)c1 [C-44] | – | 100 | – | 100 | 100 | – | 90 | – | – | 3.00 | –
CNC(=O)c1cc(C=NOC)cc(C)c1NC(=O)c1cc(CF)nn1-c1ncccc1Cl [C-45] | – | 100 | – | 100 | 100 | – | 100 | – | – | 2.14 | –
CON=Cc1cc(C)c(NC(=O)c2cc(C(F)(F)F)nn2-c2ncccc2Cl)c(C(=O)NNC(=O)Oc2ccccc2)c1 [A-19] | 95 | – | 100 | 100 | 100 | 3.02 | 90 | – | – | – | –
CON=Cc1cc(C)c(NC(=O)c2cc(C(F)(F)F)nn2-c2ncccc2Cl)c(C(=O)N(C)NC(=O)Oc2ccccc2)c1 [A-26] | – | – | – | – | 100 | 3.72 | 90 | – | – | – | –
CON=Cc1cc(C)c(NC(=O)c2cc(Br)nn2-c2ncccc2Cl)c(C(=O)NC2(C)CSC2)c1 (mixture of isomers) [B-01] | – | 90 | – | 100 | 100 | – | 100 | – | – | – | 3.22
CO/N=C/c1cc(C)c(NC(=O)c2cc(OCC(F)F)nn2-c2ncccc2Cl)c(C(=O)NN(C)C(=O)OC)c1 [A-01, Methyl 2-{2-({[1-(3-chloropyridin-2-yl)-3-(2,2-difluoroethoxy)-1H-pyrazol-5-yl]carbonyl}amino)-5-[(E)-(methoxyimino)methyl]-3-methylbenzoyl}-1-methylhydrazinecarboxylate] | – | 90 | – | 100 | 100 | – | 90 | 2.58 | 2.58 | – | –
CON=Cc1cc(C)c(NC(=O)c2cc(CF)nn2-c2ncccc2Cl)c(C(=O)NC(C)C2CC2)c1 (stereo not drawn) [C-43] | – | 90 | – | 100 | 100 | – | 90 | – | – | 2.96 | –
COCC(C)NC(=O)c1cc(C=NOC)cc(C)c1NC(=O)c1cc(OC)nn1-c1ncccc1Cl (stereo not drawn) [C-41] | – | 100 | – | – | 100 | – | 90 | – | – | 2.51 | –
CON=Cc1cc(C)c(NC(=O)c2cc(C(F)(F)F)nn2-c2ncccc2Cl)c(C(=O)NN(C)C(=O)OC)c1 (mixture of isomers) [A-46] | – | 90 | – | 100 | 100 | 2.85 | 100 | – | – | – | –
CON=Cc1cc(C)c(NC(=O)c2cc(C(F)F)nn2-c2ncccc2Cl)c(C(=O)NC2CC2)c1 [C-34] | 100 | 100 | 100 | 100 | 100 | – | – | – | – | 2.72 | –
CNC(=O)c1cc(C=NOC)cc(C)c1NC(=O)c1cc(OCC(F)F)nn1-c1ncccc1Cl [C-20] | 100 | 90 | 100 | 83 | 100 | – | – | – | – | 2.57 | –
CON=Cc1cc(C)c(NC(=O)c2cc(OC)nn2-c2ncccc2Cl)c(C(=O)NC2COC2)c1 (mixture of isomers) [B-10] | – | 100 | – | 100 | 100 | – | – | – | – | – | 2.04
CON=Cc1cc(C)c(NC(=O)c2cc(C(F)(F)F)nn2-c2ncccc2Cl)c(C(=O)N(C)NC(=O)OC)c1 (mixture of isomers) [A-48] | – | 100 | – | 100 | 100 | 3.00 | – | – | – | – | –
C=CCOC(=O)NNC(=O)c1cc(C=NOC)cc(C)c1NC(=O)c1cc(C(F)(F)F)nn1-c1ncccc1Cl [A-21] | – | 90 | – | 100 | 100 | 3.04 | – | – | – | – | –
C#CCOC(=O)NN(C)C(=O)c1cc(C=NOC)cc(C)c1NC(=O)c1cc(C(F)(F)F)nn1-c1ncccc1Cl [A-29] | 95 | 90 | 100 | – | 100 | 3.16 | 90 | – | – | – | –
